Measured values published in PMC4977052, “On the Utility of ToxCast™ and ToxPi as Methods for Identifying New Obesogens” (Environmental Health Perspectives, 2016).
“And” between values parts separate entries of the source, which are not always exact repeats. Identical values can stand only once. Like-named read-outs stand apart in the source and are kept apart here.

Tests used:
GAL4-mPPARγ [1] = molecular target: T1, GAL4-mPPARγ (Mus musculus, UniProt P37238); experiment: GAL4-mPPARγ activation, transient transfection luciferase reporter in COS7 cells; format: cell-based; conditions: for Activation COS7 (result in words), ToxPi chemicals: PPARγ or RXRα activation assays (Table 2)
T1 construct: expressed in transfected cells; host or cells: COS7
T1 sequence (P37238 with tags, fused parts or gaps limits assumed): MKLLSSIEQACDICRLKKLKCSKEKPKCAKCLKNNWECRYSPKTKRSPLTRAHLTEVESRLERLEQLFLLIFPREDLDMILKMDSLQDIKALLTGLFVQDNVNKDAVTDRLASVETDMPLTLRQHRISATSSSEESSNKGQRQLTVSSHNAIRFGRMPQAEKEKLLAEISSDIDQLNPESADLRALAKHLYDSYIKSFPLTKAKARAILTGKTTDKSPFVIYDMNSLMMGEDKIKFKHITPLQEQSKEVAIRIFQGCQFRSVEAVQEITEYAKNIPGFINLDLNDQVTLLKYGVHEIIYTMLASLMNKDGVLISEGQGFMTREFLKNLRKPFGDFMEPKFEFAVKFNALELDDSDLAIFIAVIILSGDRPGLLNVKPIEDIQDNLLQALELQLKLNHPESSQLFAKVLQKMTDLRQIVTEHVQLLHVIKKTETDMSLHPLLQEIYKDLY
Method: (§1) pCMX-Gal4, pCMX-Gal4-mPPARγ, and pCMX-Gal4-hRXRα were previously described ([Grün et al. 2006]). Transient transfections were performed in COS7 cells as described ([Chamorro-García et al. 2012]). Briefly, COS7 cells were seeded at 15,000 cells per well in 96-well tissue culture plates in 10% calf bovine serum. The following day, cells were transfected in Opti-MEM at ~ 90% confluency. One microgram of CMX-GAL4 effector plasmid was co-transfected with 5 μg tk-(MH100)4-luciferase reporter and 5 μg of CMX-β-galactosidase transfection control plasmids in Opti-MEM® using Lipofectamine® 2000 reagent (Invitrogen™ Life Technologies, Carlsbad, CA, USA), following the manufacturer’s recommended protocol. All chemicals were solvated in dimethyl sulfoxide (DMSO). After overnight incubation, the medium was replaced with Dulbecco’s Modified Eagle Medium (DMEM; HyClone, Logan, UT, USA), 10% resin charcoal stripped fetal bovine serum (FBS) plus ligands at concentrations indicated in the figure legends for an additional 24 hr. DMSO concentration was maintained at 0.05% across all chemical treatments. Cells were lysed and assayed for luciferase and β-galactosidase activity as previously described ([Forman et al. 1995]). All transfections were performed in triplicate and reproduced in multiple experiments. Data are reported as fold induction or reduction over vehicle ([…]) controls ± SEM (standard error of the mean) using standard propagation of error ([Bevington and Robinson 2003]). […] The EC50, EC10, IC50, and IC10 values from NCGC and ToxCast™ are reported from gain AC50 and AC10 values in the ToxCast™ 2014 release ([Filer et al. 2014]).
(§2) Figure 1 ToxCast™ Chemical Activity on PPARγ. The ability of a graded dose series of ToxCast™ chemicals to (A) activate or (B) antagonize GAL4-mPPARγ was tested in transiently transfected COS7 cells. (A, B) Data points are averages of triplicate transfections (three biological replicates). […] Data are depicted as (A) fold induction or (B) reduction over vehicle (0.05% DMSO) controls ± SEM. (A) ToxCast™ chemicals were tested in 3-fold serial dilutions from 100 μM through 0.137 μM, with the final data point being 0.05% DMSO. Rosiglitazone serves as a positive control activator. (B) ToxCast™ chemicals were tested in 3-fold serial dilutions from 100 μM, in competition with 50 nM rosiglitazone (Rosi). […] (C) EC50, EC10, IC50, and IC10 values calculated from A and B are reported and compared to commercial assays (see Figure S1). Note: ATG, Attagene GAL-PPARγ activation assay; NCGC, GeneBLAzer® agonist (EC values) or antagonist (IC values) assays. Triphenyltin was previously published ([Kanayama et al. 2005]).
Figure 4 ToxPi Chemical Activity on PPARγ and RXRα. The ability of a graded dose series of ToxPi chemicals to activate (A) GAL4-mPPARγ or (B) GAL4-hRXRα was tested in transiently transfected COS7 cells. (A, B) Data points are averages of triplicate transfections (three biological replicates). […] ToxPi chemicals were tested in 3-fold serial dilutions from 100 μM through 0.137 μM, with the final data point being 0.05% DMSO. Data are depicted as fold induction over vehicle (0.05% DMSO) controls ± SEM. (A) Rosiglitazone serves as a positive control activator for GAL4-mPPARγ. (B) LG100268 (2-[1-(3,5,5,8,8-Pentamethyl-5,6,7,8-tetrahydro-2-naphthyl)cyclopropyl]pyridine-5-carboxylic acid) serves as a positive control activator for GAL4-hRXRα. (C) EC50 and EC10 values calculated from A and B are reported and compared to other assays (see Figure S1). ATG, Attagene GAL-PPARγ or GAL-RXRα activation assay; NCGC, GeneBLAzer® GAL-PPARγ or GAL-RXRα activation assays. Triphenyltin was previously published ([Kanayama et al. 2005]).

GAL4-mPPARγ [2] = molecular target: T1, GAL4-mPPARγ; experiment: GAL4-mPPARγ antagonism in competition with 50 nM rosiglitazone, transiently transfected COS7 cells; format: cell-based
Method: as §1, §2

3T3-L1 preadipocytes = experiment: 3T3-L1 adipogenesis assay (lipid accumulation, adipogenic gene expression); format: cell-based; conditions: 0.02-20 μM, 5 days after MDI induction
Method: 3T3-L1 cells (ATCC) were maintained in high-glucose DMEM supplemented with 10% fetal bovine serum, 2 mM L-glutamine, 50 IU/mL penicillin, and 50 μg/mL streptomycin. A total of 2 × 10^4 cells per well were seeded in 12-well plates. After 48 hr, cells were exposed to the adipogenic cocktail MDI (500 μM isobutylmethylxanthine, 0.25 nM dexamethasone and 5 μg/mL insulin), 8 μg/mL biotin and 8 μg/mL pantothenate for 2 days. Induction media was removed and cells were exposed to test chemicals during 5 days, replacing the media every 2 days. Rosiglitazone (ROSI) and tributyltin (TBT) were used as positive controls at 100 nM and 50 nM final concentrations, respectively. All ToxCast™ chemicals were tested at 0.02, 0.2, 2, and 20 μM, and DMSO concentration was maintained at 0.1% across all treatments. If the chemical was toxic at 20 μM, we repeated the experiment at 10 μM.
Cells were either fixed in 3.7% formaldehyde in phosphate-buffered saline (PBS) for 30 min at room temperature (RT) for lipid quantitation, or homogenized in TriPure (Roche, Mannheim, Germany) for gene expression analysis. For lipid quantitation, fixed cells were washed twice with PBS and maintained in PBS overnight at 4°C to release residual phenol red. Background of cells were measured prior to staining. Cells were stained with 1 μg/mL Nile red (CAS No. 7385-67-3) (to detect lipid accumulation) and 1 μg/mL Hoechst 33342 (ThermoFisher Scientific) (to detect nuclei as a surrogate for cell number) in PBS for 15 min in the dark at RT and washed twice with PBS. […] Background values of Hoechst and Nile red were subtracted from the RFUs after staining and the ratio RFUNile Red:RFUHoechst was calculated. Data are represented as mean ± SEM. Total RNA was isolated using TriPure (Roche) as recommended by the manufacturer. Reverse transcription and quantitative real-time RT-PCR (QPCR) were performed using Transcriptor RT and SYBR® Green Master Mix (Roche). cDNA was quantitated in a LightCycler® 480 System (Roche Diagnostics, Basel, Switzerland) using primer sets listed in Table S4. Each primer set amplified a single band as determined by gel electrophoresis and melting curve analysis. QPCR data were analyzed using the 2^ΔΔCt method ([Livak and Schmittgen 2001]) relative to ribosomal protein 36b4, normalizing to 0.1% DMSO vehicle. Error bars represent the SEM from four to six biological replicates calculated using standard propagation of error ([Bevington and Robinson 2003]).

PPARγ [3] = conditions: cited from earlier work
PPARγ [4] = system: PPARγ; parameters: method as in Filer et al. 2014; conditions: ref Filer et al. 2014, cited from earlier work; for AC50: PPARγ, NA = not active, read-out: NCGC Antag. AC50, 2014 Release
Human PPARγ = conditions: cited from earlier work
PPARγ [5] = conditions: ref Filer et al. 2014, cited from earlier work
[6] = PPARγ, NA = not active, ref Filer et al. 2014, read-out: ATG Agonist AC50, 2014 Release
[7] = PPARγ, NA = not active, ref Knudsen et al. 2011, read-out: ATG Agonist AC50, 2011 Release
[8] = PPARγ direct binding, NA = not active, ref Filer et al. 2014, read-out: NVS Agonist AC50, 2014 Release
[9] = PPARγ, NA = not active, read-out: NCGC Agonist AC50, 2014 Release
[10] = ToxCast 2014 release, ref Filer et al. 2014, read-out: Attagene AC50 (panel A, w/o Z-Score Correction ranking)
[11] = Cos-7 transient transfection, PPARγ activation or antagonism assays (Table 1, Table S6)

| Structure (SMILES) | Adipogenesis 3T3-L1 (result in words) (3T3-L1 preadipocytes) | AC50 (PPARγ [3]; [6]) | AC50 (PPARγ [3]; [7]) [µM] | AC50 (PPARγ [4]) [µM] | Activation COS7 (result in words), ToxCast PPARγ list (GAL4-mPPARγ [1]) | further results |
| --- | --- | --- | --- | --- | --- | --- |
| CCOCN(C(=O)CCl)c1c(C)cccc1CC [Acetochlor] | Negative | 1.5 µM | 1.7 | 4.5 | – | Activation of GAL4-PPARγ (text) (GAL4-mPPARγ [1]; COS7, 100 μM through 0.137 μM): did not activate PPARγ; AC50 (GAL4-mPPARγ [2]; Activation AC50 (PPARγ antagonists), Cos-7 transient transfection, competition with 50 nM rosiglitazone): 46.7 µM; Antagonism of PPARγ (GAL4-mPPARγ [2]; COS7, competition against 50 nM rosiglitazone): weak antagonists; IC50 (GAL4-mPPARγ [2]; COS7, in competition with 50 nM rosiglitazone): 46.7 µM; PPARγ antagonists: IC10, Fig 1B (GAL4-mPPARγ [2]; COS7, in competition with 50 nM rosiglitazone, computed from IC50): 9.54 µM; Activation COS7 (result in words): PPARγ antagonist (GAL4-mPPARγ [2]; Cos-7 transient transfection, competition with 50 nM rosiglitazone): PPARγ antagonist; PPARγ antagonists: IC10, NCGC (PPARγ [4]; AC10, ToxCast 2014 release): 0.42 µM; IC50 (PPARγ [4]; read-out: PPARγ antagonists: IC50, NCGC, gain AC50, ToxCast 2014 release): 4.5 µM |
| CCCCOCN(C(=O)CCl)c1c(CC)cccc1CC [Butachlor] | – | 2 µM | 2.1 | 26.4 | – | – |
| N#Cc1c(Cl)c(Cl)c(Cl)c(C#N)c1Cl [Chlorothalonil] | – | – | – | 0.9 | Inactive | ATG Agonist AC50, 2011 Release (PPARγ [3]; PPARγ, NA = not active, ref Knudsen et al. 2011): negative; AC50 (Human PPARγ; [8]): 0.46 µM; AC50 (Human PPARγ; PPARγ direct binding, NA = not active, ref Knudsen et al. 2011, read-out: NVS Agonist AC50, 2011 Release): 0.6 µM; AC50 (PPARγ [5]; [9]): 82.8 µM |
| COCC(C)N(C(=O)CCl)c1c(C)csc1C (stereo not shown) [Dimethenamid] | – | 4.6 µM | 5.6 | 21.4 | Inactive | – |
| COc1ccc(C(=CC(=O)N2CCOCC2)c2ccc(Cl)cc2)cc1OC [Dimethomorph] | – | 9.4 µM and 10.1 µM | 11 | 32.3 | Inactive | AC50 (Human PPARγ; [8]): 9.6 µM |
| COC(=O)N(C(=O)N1CO[C@@]2(C(=O)OC)Cc3cc(Cl)ccc3C2=N1)c1ccc(OC(F)(F)F)cc1 [Indoxacarb] | – | 6.1 µM | 8.5 | 10.7 | Inactive | AC50 (PPARγ [5]; [9]): 44.1 µM |
| N#CSCSC#N [Methylene dithiocyanate] | Negative | – | – | – | – | Activation COS7 (result in words), ToxPi chemicals (GAL4-mPPARγ [1]; Cos-7 transient transfection): Inactive |
| CNC(=O)/C=C(\C)OP(=O)(OC)OC [Monocrotophos] | Negative | – | – | – | – | Activation COS7 (result in words), ToxPi chemicals (GAL4-mPPARγ [1]; Cos-7 transient transfection): Inactive; AC50 (PPARγ [3]; [10]): 2.2 µM; AC50 (Human PPARγ; direct binding, ToxCast 2014 release, ref Filer et al. 2014, read-out: NovaScreen AC50 (panel A)): 20.8 µM; AC50 (PPARγ [5]; ToxCast 2014 release, read-out: Tox21/NCGC AC50 (panel A)): 67.5 µM |
| O=C(Nc1ccc([N+](=O)[O-])cc1Cl)c1cc(Cl)ccc1O [Niclosamide] | – | 0.56 µM | 0.56 | 35.9 | – | Activation COS7 (result in words), ToxCast PPARγ list (GAL4-mPPARγ [1]; [11]): Inactive; AC50 (PPARγ [3]; [10]): 0.6 µM; AC50 (PPARγ [5]; [9]): 29.9 µM |
| O=S(=O)(O)C(F)(F)C(F)(F)C(F)(F)C(F)(F)C(F)(F)C(F)(F)C(F)(F)C(F)(F)F [PFOS, perfluorooctanesulfonic acid] | Negative | – | – | – | – | Activation COS7 (result in words), ToxPi chemicals (GAL4-mPPARγ [1]; Cos-7 transient transfection): Inactive; AC50 (PPARγ [3]; ToxCast Phase I 2011 release, NA = not active, ref Knudsen et al. 2011, read-out: ATGT PPARγ AC50): 26 µM; AC50 (Human PPARγ; direct binding, ToxCast Phase I 2011 release, NA = not active, ref Knudsen et al. 2011, read-out: NVS PPARγ AC50): 16 µM |
| CCCN(CCOc1c(Cl)cc(Cl)cc1Cl)C(=O)n1ccnc1 [Prochloraz] | – | – | 3.5 | 81.5 | – | Activation COS7 (result in words), ToxCast PPARγ list (GAL4-mPPARγ [1]; [11]): Inactive; AC50 (Human PPARγ; [8]): 27.5 µM |
| CC1=NNC(=O)N(/N=C/c2cccnc2)C1 [Pymetrozine] | Positive | – | – | – | – | Activation COS7 (result in words), ToxPi chemicals (GAL4-mPPARγ [1]; Cos-7 transient transfection): Inactive; Adipogenesis 3T3-L1 (result in words) (3T3-L1 preadipocytes; listed as pymetrozine): promoted adipogenesis |
| COC(=O)N(OC)c1ccccc1COc1ccn(-c2ccc(Cl)cc2)n1 [Pyraclostrobin] | – | 0.61 µM | 0.76 | 0.7 | Inactive | – |
| CCc1ccc(C(=O)NN(C(=O)c2cc(C)cc(C)c2)C(C)(C)C)cc1 [Tebufenozide] | – | 7.6 µM | 6.3 | 50.8 | Inactive | – |
